Assay results taken from patent publication US20060083754A1, “Pharmaceutical combinations comprising corticoids and immunosuppressants for treating corticoid- and/or calcineurin inhibitors-resistant diseases” (priority 2003, published 2006).

Tests used:
[1] = system: human peripheral blood mononuclear cells (PBMC); test: T-cell proliferation assay (BrdU ELISA), PBMC stimulated with SEB; format: cell-based; details: SEB (0.1 μg/ml); for inhibition at 0.03 µM: Homo sapiens, PBMC
[2] = system: human peripheral blood mononuclear cells (PBMC); test: T-cell proliferation assay (BrdU ELISA), PBMC stimulated with anti-CD3 mAb + anti-CD28 mAb; format: cell-based; details: anti-CD3 mAb (0.1 μg/ml)+anti-CD28 mAb (1 μg/ml); for inhibition at 0.03 µM: Homo sapiens, PBMC
[3] = Example 4, 200000 cells/well, HC 10 μM, ASM 30 nM, BETA 300 nM
[4] = Example 5, 100000 cells/well, HC 10 μM, ASM 30 nM, BETA 300 nM
[5] = Example 9, 200000 cells/well, DEX 300 nM, ASM 30 nM, BETA 300 nM
[6] = Example 10, 100000 cells/well, DEX 300 nM, ASM 30 nM, BETA 300 nM
[7] = Example 12, 100000 cells/well, DEX 300 nM, ASM 30 nM
[8] = Example 1, 200000 cells/well, HC 10 μM, ASM 30 nM, BETA 300 nM
[9] = Example 2, 100000 cells/well, HC 10 μM, ASM 30 nM, BETA 300 nM
[10] = Example 3, 50000 cells/well, HC 10 μM, ASM 30 nM, BETA 300 nM
[11] = Example 6, 200000 cells/well, DEX 300 nM, ASM 30 nM, BETA 300 nM
[12] = Example 7, 100000 cells/well, DEX 300 nM, ASM 30 nM, BETA 300 nM
[13] = Example 8, 50000 cells/well, DEX 300 nM, ASM 30 nM, BETA 300 nM
[14] = Example 11, 100000 cells/well, DEX 300 nM, ASM 30 nM
[15] = Example 22, 200000 cells/well, HC 10 μM, CsA 300 nM, BETA 300 nM, HC (10 μM)+CsA (30 nM), BETA (300 nM)+CsA (300 nM)
[16] = Example 26, 200000 cells/well, DEX 300 nM, CsA 300 nM, BETA 300 nM, DEX (300 nM)+CsA (30 nM), BETA (300 nM)+CsA (300 nM)
[17] = Example 13, 200000 cells/well, HC 10 μM, FK 30 nM, BETA 300 nM
[18] = Example 14, 100000 cells/well, HC 10 μM, FK 30 nM, BETA 300 nM
[19] = Example 15, 200000 cells/well, DEX 300 nM, FK 30 nM, BETA 300 nM
[20] = Example 16, 100000 cells/well, DEX 300 nM, FK 30 nM, BETA 300 nM
[21] = Example 17, 50000 cells/well, DEX 300 nM, FK 30 nM, BETA 300 nM
[22] = Example 19, 200000 cells/well, HC 10 μM, CsA 300 nM, BETA 300 nM, HC (10 μM)+CsA (30 nM), BETA (300 nM)+CsA (300 nM)
[23] = Example 20, 100000 cells/well, HC 10 μM, CsA 300 nM, BETA 300 nM, HC (10 μM)+CsA (30 nM), BETA (300 nM)+CsA (300 nM)
[24] = Example 21, 50000 cells/well, HC 10 μM, CsA 300 nM, BETA 300 nM, HC (10 μM)+CsA (30 nM), BETA (300 nM)+CsA (300 nM)
[25] = Example 23, 200000 cells/well, DEX 300 nM, CsA 300 nM, BETA 300 nM, DEX (300 nM)+CsA (30 nM), BETA (300 nM)+CsA (300 nM)
[26] = Example 24, 100000 cells/well, DEX 300 nM, CsA 300 nM, BETA 300 nM, DEX (300 nM)+CsA (30 nM), BETA (300 nM)+CsA (300 nM)
[27] = Example 25, 50000 cells/well, DEX 300 nM, CsA 300 nM, BETA 300 nM, DEX (300 nM)+CsA (30 nM), BETA (300 nM)+CsA (300 nM)
[28] = Example 18, 100000 cells/well, DEX 300 nM, FK 30 nM

SMILES: CC[C@@H]1/C=C(\C)C[C@H](C)C[C@H](OC)[C@H]2O[C@@](O)(C(=O)C(=O)N3CCCC[C@H]3C(=O)O[C@H](/C(C)=C/[C@@H]3CC[C@H](Cl)[C@H](OC)C3)[C@H](C)[C@@H](O)CC1=O)[C@H](C)C[C@@H]2OC [ASM, 33-epi-33-chloro-FR 520]
- Normalized OD (% STIM-C) [1, 3]: 95.8 % STIM-C
- OD [1, 3]: 1.015
- Normalized OD (% STIM-C) [1, 4]: 78.1 % STIM-C
- OD [1, 4]: 0.665
- Normalized OD (% STIM-C) [1, 5]: 83.1 % STIM-C
- OD [1, 5]: 0.752
- Normalized OD (% STIM-C) [1, 6]: 67.3 % STIM-C
- OD [1, 6]: 0.660
- Normalized OD (% STIM-C) [1, 7]: 77.5 % STIM-C
- OD [1, 7]: 1.013
- inhibition at 0.03 µM [1, 4]: < 24%
- inhibition at 0.03 µM [1, 5]: < 19%
- inhibition at 0.03 µM [1, 6]: < 34%
- inhibition at 0.03 µM [1, 7]: < 24%
- Normalized OD (% STIM-C) [2, 8]: 93.9 % STIM-C
- OD [2, 8]: 0.721
- Normalized OD (% STIM-C) [2, 9]: 85.1 % STIM-C
- OD [2, 9]: 0.776
- Normalized OD (% STIM-C) [2, 10]: 113.2 % STIM-C
- OD [2, 10]: 0.994
- Normalized OD (% STIM-C) [2, 11]: 98.0 % STIM-C
- OD [2, 11]: 0.772
- Normalized OD (% STIM-C) [2, 12]: 87.4 % STIM-C
- OD [2, 12]: 0.734
- Normalized OD (% STIM-C) [2, 13]: 86.2 % STIM-C
- OD [2, 13]: 0.908
- Normalized OD (% STIM-C) [2, 14]: 79.1 % STIM-C
- OD [2, 14]: 0.918
- inhibition at 0.03 µM [2, 8]: 6.7%
- inhibition at 0.03 µM [2, 9]: < 17%
- inhibition at 0.03 µM [2, 10]: -14.3%
- inhibition at 0.03 µM [2, 12]: < 25%
- inhibition at 0.03 µM [2, 13]: < 26%
- inhibition at 0.03 µM [2, 14]: < 25%

SMILES: CCCCC(=O)O[C@]1(C(=O)CO)[C@@H](C)C[C@H]2[C@@H]3CCC4=CC(=O)C=C[C@]4(C)[C@@]3(F)[C@@H](O)C[C@@]21C [BETA, betamethasone 17-valerate]
- Normalized OD (% STIM-C) [1, 3]: 85.0 % STIM-C
- OD [1, 3]: 0.900
- Normalized OD (% STIM-C) [1, 4]: 117.6 % STIM-C
- OD [1, 4]: 1.001
- Normalized OD (% STIM-C) [1, 5]: 99.7 % STIM-C
- OD [1, 5]: 0.902
- Normalized OD (% STIM-C) [1, 6]: 97.4 % STIM-C
- OD [1, 6]: 0.955
- Normalized OD (% STIM-C) [1, 15]: 85.0 % STIM-C
- OD [1, 15]: 0.900
- Normalized OD (% STIM-C) [1, 16]: 99.7 % STIM-C
- OD [1, 16]: 0.902
- Normalized OD (% STIM-C) [2, 8]: 105.2 % STIM-C
- OD [2, 8]: 0.808
- Normalized OD (% STIM-C) [2, 9]: 87.3 % STIM-C
- OD [2, 9]: 0.796
- Normalized OD (% STIM-C) [2, 10]: 99.4 % STIM-C
- OD [2, 10]: 0.873
- Normalized OD (% STIM-C) [2, 11]: 89.2 % STIM-C
- OD [2, 11]: 0.703
- Normalized OD (% STIM-C) [2, 12]: 82.4 % STIM-C
- OD [2, 12]: 0.692
- Normalized OD (% STIM-C) [2, 13]: 75.4 % STIM-C
- OD [2, 13]: 0.794
- Normalized OD (% STIM-C) [2, 17]: 105.2 % STIM-C
- OD [2, 17]: 0.808
- Normalized OD (% STIM-C) [2, 18]: 87.3 % STIM-C
- OD [2, 18]: 0.796
- Normalized OD (% STIM-C) [2, 19]: 89.2 % STIM-C
- OD [2, 19]: 0.703
- Normalized OD (% STIM-C) [2, 20]: 82.4 % STIM-C
- OD [2, 20]: 0.692
- Normalized OD (% STIM-C) [2, 21]: 75.4 % STIM-C
- OD [2, 21]: 0.794
- Normalized OD (% STIM-C) [2, 22]: 105.2 % STIM-C
- OD [2, 22]: 0.808
- Normalized OD (% STIM-C) [2, 23]: 87.3 % STIM-C
- OD [2, 23]: 0.796
- Normalized OD (% STIM-C) [2, 24]: 99.4 % STIM-C
- OD [2, 24]: 0.873
- Normalized OD (% STIM-C) [2, 25]: 89.2 % STIM-C
- OD [2, 25]: 0.703
- Normalized OD (% STIM-C) [2, 26]: 82.4 % STIM-C
- OD [2, 26]: 0.692
- Normalized OD (% STIM-C) [2, 27]: 75.4 % STIM-C
- OD [2, 27]: 0.794

SMILES: C=CC[C@@H]1/C=C(\C)C[C@H](C)C[C@H](OC)[C@H]2O[C@@](O)(C(=O)C(=O)N3CCCC[C@H]3C(=O)O[C@H](/C(C)=C/[C@@H]3CC[C@@H](O)[C@H](OC)C3)[C@H](C)[C@@H](O)CC1=O)[C@H](C)C[C@@H]2OC [FK, tacrolimus]
- Normalized OD (% STIM-C) [2, 17]: 119.9 % STIM-C
- OD [2, 17]: 0.921
- Normalized OD (% STIM-C) [2, 18]: 72.6 % STIM-C
- OD [2, 18]: 0.662
- Normalized OD (% STIM-C) [2, 19]: 100.9 % STIM-C
- OD [2, 19]: 0.795
- Normalized OD (% STIM-C) [2, 20]: 96.3 % STIM-C
- OD [2, 20]: 0.809
- Normalized OD (% STIM-C) [2, 21]: 79.6 % STIM-C
- OD [2, 21]: 0.838
- Normalized OD (% STIM-C) [2, 28]: 78.0 % STIM-C
- OD [2, 28]: 0.905
- inhibition at 0.03 µM [2, 17]: -21.9%
- inhibition at 0.03 µM [2, 18]: < 31%
- inhibition at 0.03 µM [2, 21]: < 26%
- inhibition at 0.03 µM [2, 28]: < 25%
